{"source": "patent US6093805A", "about": "“Glycoside compounds and methods of synthesis” (The Regents of the University of Michigan, priority 1997, dated 2000)", "key": {"[1]": {"conditions": "in vivo; cited from earlier work"}, "cancer cells": {"system": "cancer cells", "conditions": "cited from earlier work"}, "K-562": {"system": "K-562", "experiment": "Tumor cell growth inhibition in K-562 cell culture (FIG. 8)", "assay_type": "cell-based", "conditions": "K-562 culture fluid; 1/10 (0.4 mg/mL), 1/80 (0.03 mg/mL), 1/320 (0.007 mg/mL); plot FIG. 8"}, "[2]": {"system": "cancer diseases of several phenotypes", "conditions": "cited from earlier work"}, "[3]": {"system": "cancer cells of representative phenotypes", "conditions": "cited from earlier work"}, "[4]": {"experiment": "Solubility in 14 mM phosphate buffered saline pH 7.4 at 23° C.", "assay_type": "physicochemical", "conditions": "aqueous buffer, 14 mM PBS pH 7.4, OD at 250 nm of supernatant, read-out: maximum solubility", "method": "The solubility of the two acetaminophen derivatives (Examples 9 and 10) in 14 mM phosphate buffered saline (PBS) pH 7.4 was determined and compared with the solubility of non-derivatized acetaminophen. It was determined that the two acetaminophen derivatives had much greater solubility than that of the non-derivatized acetaminophen. All work was performed at 23° C.\nMethod: The solubility of both derivatives was determined by continual addition, with agitation, of the derivatives to a known amount of buffer. When a significant precipitate was observed, the respective solutions were centrifuged and the optical density at 250 nm of the resulting clear supernatant was determined. From the optical density of the supernatant, the concentration was obtained by comparison with non-derivatized acetaminophen standard curves."}}, "note": "Where a name gives a salt, the structure may show the parent alone.", "data": [{"smiles": "CC(C)CCC[C@@H](C)[C@H]1CC[C@H]2[C@@H]3[C@@H](OC(=O)CCC(=O)O)C=C4C[C@@H](OC(=O)CCC(=O)O)CC[C@]4(C)[C@H]3CC[C@]12C", "note": "[7β-OHC bishemisuccinate colamine salt]", "values": [{"measurement": "normalizing effects", "setting": "[1]", "result": "drive-enhancing (stimulating) activity as well as a tranquilizing activity"}, {"measurement": "inhibition of proliferative phase growth of cancer cells", "setting": "cancer cells; clinical studies, low parenteral dosage", "result": "selectively inhibit the proliferative phase growth of cancer cells"}, {"measurement": "side effects", "setting": "cancer cells; in vivo", "result": "without substantial side effects"}]}, {"smiles": "CC(C)CCC[C@@H](C)[C@H]1CC[C@H]2[C@@H]3[C@@H](O)C=C4C[C@@H](O)CC[C@]4(C)[C@H]3CC[C@]12C", "note": "[7β-hydroxycholesterol, 5-cholestene-3β,7β-diol]", "values": [{"measurement": "tumor cell growth inhibition", "setting": "K-562", "result": "tumor cell growth inhibition"}, {"measurement": "side effects in treatment of cancer diseases", "setting": "[2]; in vivo", "result": "free of side effects"}, {"measurement": "treatment of cancer diseases", "setting": "[2]; several phenotypes", "result": "successfully employed"}, {"measurement": "effect on healthy cells", "setting": "[3]", "result": "not affecting healthy cells"}, {"measurement": "elimination of cancer cells", "setting": "[3]; substantially non-toxic dosage", "result": "effective at substantially non-toxic dosage and capable of eliminating cancer cells of representative phenotypes"}]}, {"smiles": "CC(=O)Nc1ccc(O[C@@H]2C=C[C@H](O[C@H]3O[C@H](CO)[C@@H](O)[C@H](O)[C@H]3O)[C@@H](CO)O2)cc1", "note": "[Example 9, p-Acetoamidophenyl 4-O-(α-D-glucopyranosyl)-2,3-dideoxy-α-D-erythro-hex-2-enopyranoside]", "values": [{"measurement": "solubility", "setting": "[4]", "result": 60, "unit": "mg/mL"}]}, {"smiles": "CC(=O)Nc1ccc(O[C@@H]2C=C[C@H](O[C@@H]3O[C@H](CO)[C@H](O)[C@H](O)[C@H]3O)[C@@H](CO)O2)cc1", "note": "[Example 10, p-Acetoamidophenyl 4-O-(β-D-galactopyranosyl)-2,3-dideoxy-O-D-erythro-hex-2-enopyranoside]", "values": [{"measurement": "solubility", "setting": "[4]", "result": 55, "unit": "mg/mL"}]}, {"smiles": "CC(=O)Nc1ccc(O)cc1", "note": "[acetaminophen, 4-acetamidophenol]", "values": [{"measurement": "solubility", "setting": "[4]", "result": 7, "unit": "mg/mL"}]}]}
